Reference: US4755525A, “2-(fluoroalkyl)-benzimidazoles as inhibitors of 5-lipoxygenase” (Beecham Group p.l.c., priority 1985, dated 1988)
Where a name gives a salt, the structure may show the parent alone.

Legend:
[1] = tested on: carrageenin-induced pleurisy; assay: Carrageenin-induced pleurisy in the rat; assay type: in vivo; settings: dose of 25 mg/kg p.o., given 1 hour before and 24 and 48 hours after carrageenin
Method: CARRAGEENIN-INDUCED PLEURISY IN THE RAT
This model of monocyte accumulation is based on the method of R. Vinegar, J. F. Truax, J. L. Selph and F. A. Voelker [Federation Proceeding 41, 2588-2595, 1982].
0.2 ml of a 2.0% solution of λ-carrageenin (Viscarin 402) in saline was injected intrapleurally in anaesthetised rats (wt. approx. 175-200 g). Compounds were administered 1 hour before carrageenin and at 24 and 48 hours after carrageenin. 72 hours after carrageenin injection, 4.0 ml of EDTA solution (5 g EDTA in 100 ml of 0.9% saline and 325 mg phenol red added together with saline to 1 liter) was injected intrapleurally after killing the animals, and the exudate removed with a syringe through the diaphragm. Exudate volume was measured spectrophotometrically (560 nm) and cellular content estimated with a DNA assay [Karsten U. and Wollenberger A. Anal. Biochem. 77, 464-470, 1977].
This test is used to indicate anti-inflammatory activity against carrageenin-induced pleurisy in the rat. The compound of Example 1 was active at a dose of 25 mg/kg (p.o.).

[2] = molecular target: T1, 5-Lipoxygenase enzyme from RBL-1 cells (Rattus norvegicus, UniProt P12527); assay: RBL-1 5-lipoxygenase screen (cell free); assay type: biochemical; settings: read-out: percentage inhibition of 5-lipoxygenase
T1 construct: prepared as a 10,000 g supernatant from RBL-1 cells; endogenous in cells; host or cells: RBL-1 cells (10,000 g supernatant)
T1 sequence (P12527 1-673): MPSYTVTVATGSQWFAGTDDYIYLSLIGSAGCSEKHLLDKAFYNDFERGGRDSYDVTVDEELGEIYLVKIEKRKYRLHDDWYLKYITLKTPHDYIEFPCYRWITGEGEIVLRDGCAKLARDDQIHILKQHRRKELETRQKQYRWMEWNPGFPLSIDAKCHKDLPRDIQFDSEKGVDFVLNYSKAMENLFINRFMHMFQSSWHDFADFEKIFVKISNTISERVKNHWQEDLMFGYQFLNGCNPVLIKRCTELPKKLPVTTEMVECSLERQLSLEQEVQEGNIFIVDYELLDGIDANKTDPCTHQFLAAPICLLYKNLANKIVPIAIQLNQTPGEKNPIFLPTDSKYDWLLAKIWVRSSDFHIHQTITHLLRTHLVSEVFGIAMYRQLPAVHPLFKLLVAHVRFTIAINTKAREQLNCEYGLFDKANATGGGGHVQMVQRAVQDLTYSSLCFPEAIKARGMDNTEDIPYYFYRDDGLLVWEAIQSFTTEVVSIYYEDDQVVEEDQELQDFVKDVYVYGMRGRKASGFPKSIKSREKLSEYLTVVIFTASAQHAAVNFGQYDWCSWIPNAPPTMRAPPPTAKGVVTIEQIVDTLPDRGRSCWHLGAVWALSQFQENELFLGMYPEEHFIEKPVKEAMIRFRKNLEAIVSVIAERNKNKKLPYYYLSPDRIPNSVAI
Method: RBL-1 5-LIPOXYGENASE SCREEN
5-Lipoxygenase enzyme was prepared as a 10,000 g supernatant from RBL-1 cells by the method of Jakschik [Jakschik, B. A., F. F. Sun, L. M. Lee, and M. M. Steinhoff, 1980, Biochem. Biophys. Res. Comm. 95, 103]. The 10,000 g supernatant was diluted with homogenization buffer to the equivalent of 1.5-2.5×10^7 cells. ml^-1 and made 2 mM with respect to CaCl2. Aliquots of 0.5 ml were then dispensed into tubes, and incubated at 29° C. with 5 μl ethanol or compound in ethanol at the desired concentration for 2 min. Then […] arachidonic acid was added in buffer to give a final concentration of 6.3 μM and 0.2 μCi per incubation, and the reaction continued at 29° C. for 2 min. The reaction was terminated by adding 1 ml of acetone and cooling on ice, 0.5 ml of ice-cold saline and 10 μl of 2N formic acid were added, and the mixture was extracted with 2×2 ml of chloroform. The extract was stored under N2 at -20° C. until analysis by chromatography. Activity was measured as the percentage of total radioactivity found in 5-HETE and 5,12-diHETE, and inhibition calculated as the decrease in formation of the sum of these two species in compound-treated incubates relative to control incubates.
This test is used to show inhibition of the 5-lipoxygenase enzyme in a mammalian RBL-1 cell free 5-lipoxygenase assay.

inhibition at 1 µM ([2]; 1 μM concentration) [%]	inhibition at 20 µM ([2]; 20 μM concentration) [%]	Compound	anti-inflammatory activity against carrageenin-induced pleurisy in the rat [1]
93	–	Cc1cc(C(C)(C)C)c(O)c2[nH]c(C(F)(F)F)nc12 [Example 1, 5-tert-Butyl-4-hydroxy-7-methyl-2-trifluoro-methylbenzimidazole]	active
–	68	Cc1ccc(O)c2[nH]c(C(F)(F)F)nc12 [Example 2, 4-Hydroxy-7methyl-2-trifluoromethylbenzimidazole hydrochloride hydrate (4:4:1)]	–
